pIC50: −log10 of the molar value.
Tests used:
Format in all cases: cell-based
[1] = test system: P3888D1 (Mouse Leukaemia); assay: Proliferative assay against tumour cell line P3888D1 in vitro; conditions: read-out: Activity (% Growth Inhibition)
Procedure: (§1) Activity Against Tumour Cell Lines In Vitro The activity of the test compound was evaluated using proliferative assays against a number of different turnout cell lines in vitro.

[2] = test system: DLD-1 (Human colon adenocarcinoma); assay: Proliferative assay against tumour cell line DLD-1 in vitro; conditions: read-out: Activity (% Growth Inhibition)
Procedure: as §1

[3] = test system: WiDr (Human colon adenocarcinoma); assay: Proliferative assay against tumour cell line WiDr in vitro; conditions: read-out: Activity (% Growth Inhibition)
Procedure: as §1

[4] = test system: HCT-116 (Human colon carcinoma); assay: Proliferative assay against tumour cell line HCT-116 in vitro; conditions: read-out: Activity (% Growth Inhibition)
Procedure: as §1

[5] = test system: A549 (Human lung carcinoma); assay: Proliferative assay against tumour cell line A549 in vitro; conditions: read-out: Activity (% Growth Inhibition)
Procedure: as §1

HT1080SCC2 = assay: Activity against human fibrosarcoma cells in vitro, HT1080SCC2
Procedure: (§2) Activity Against Human Fibrosarcoma Cells In Vitro The activities of the test compound and of a soluble carbamate derivative thereof against two cell lines derived from human fibrosarcoma cells were measured.

HT10801C = assay: Activity against human fibrosarcoma cells in vitro, HT10801C
Procedure: as §2

tumour cell lines = assay: Activity against tumour cell lines in vitro, all cell lines tested (proliferative assays); conditions: at 1001 μM concentration (so in the source)
Procedure: as §1

[6] = test system: two cell lines derived from human fibrosarcoma cells; assay: Activity against two cell lines derived from human fibrosarcoma cells in vitro; conditions: both cell lines
Procedure: as §2

[7] = test system: carcinoma, adenocarcinoma and fibrosarcoma cells; assay: Activity against tumour cells (general statement)

Structure (SMILES) | inhibition at 100 µM [1] [%] | inhibition at 100 µM [2] [%] | inhibition at 100 µM [3] [%] | inhibition at 100 µM [4] [%] | inhibition at 100 µM [5] [%] | pIC50 (HT1080SCC2) | pIC50 (HT10801C) | active against all the cell lines tested (tumour cell lines) | activity against human fibrosarcoma cell lines [6] | activity against tumour cells [7]
O=C1C(O)=C([C@H]2CC[C@H](c3ccc(Cl)cc3)CC2)C(=O)c2ccccc21 [Test Compound, 2-[trans-4-(4-chlorophenyl)cyclohexyl]-3-hydroxy-1,4-naphthoquinone] | 92.3 | 94.2 | 79.4 | 93.8 | 86.6 | 4.96 | 4.82 | active | active | –
O=C1C(O)=C(C2CCC(c3ccc(Cl)cc3)CC2)C(=O)c2ccccc21 (stereo not shown) [compound of formula (II), 2-[4-(4-chlorophenyl)cyclohexyl]-3-hydroxy-1,4-naphthoquinone] | – | – | – | – | – | – | – | – | – | exhibits activity against tumour cells

Source: patent publication US5567738A, “Use of 2-(4-(4-chlorophenyl)cyclohexyl)-3-hydroxy-1,4-Naphthoquinone for the treatment of cancer” (Glaxo Wellcome Inc., priority 1992, dated 1996)
